Experimental findings from ChEMBL document CHEMBL3507680, “University of Dundee, Gates Library screen for HepG2 cell viability” are described below.

A short description of this data set: Human HepG2 cell viability assay in 384 well format. The data set is classed as toxicity, cell-based. More on the design: dose 125 nL, time 70.5 hour; cytotoxicity at 70.5 h: concentration not given beside the values. The conditions noted are these: HepG2 cells, read-out: Inhibition.

On to `O=C(NCC1CCCO1)c1c(-n2cnnn2)sc2c1CCC2` (centres undefined), for which the cytotoxicity at 70.5 h is -18.6%.

Regarding `CC(C)CCn1[nH]c(CNc2ccccc2)nc1=O`, the cytotoxicity at 70.5 h is -10.8%.

Take `CC1(C)Cc2ccccc2-c2nc(NCCO)[nH]c(=O)c21`: the cytotoxicity at 70.5 h was -8.18%.

Consider `CN1CCc2c(C#N)c(NCc3ccco3)n3cnnc3c2C1`, for which the cytotoxicity at 70.5 h was -7.42%.

Turning to `O=C(Cn1ccc2ccc(Br)cc21)NCc1ccc(C(=O)O)cc1`, the cytotoxicity at 70.5 h is -6.34%.

In the case of `O=C(c1cc(-n2cnnn2)ccc1Cl)N1CCC2(CC1)OCCO2`, the cytotoxicity at 70.5 h is -7.22%.

On to `Cc1cc(O)c(OCC(=O)/N=c2\[nH]cc(C)s2)cn1`, for which the cytotoxicity at 70.5 h is -21%.

With `COCc1n[nH]/c(=N/C(=O)COc2cnc(C)cc2O)s1`, the cytotoxicity at 70.5 h is -9.66%.

For `COc1ccc(-c2n[nH]cc2C2SCC(=O)Nc3[nH]ncc32)cc1` (centres undefined), the cytotoxicity at 70.5 h was -9.36%.

With `CC(=O)c1cccc(NC(=O)Cn2cc(I)cn2)c1`, the cytotoxicity at 70.5 h was -9.34%.

Regarding `O=C(CCn1ccc2cc(Br)ccc21)NCc1ccc(C(=O)O)cc1`, the cytotoxicity at 70.5 h is -5.77%.

Regarding `CC(C)CCn1c(=O)nc2n1C(=O)N(c1ccc(F)cc1)C2`, the cytotoxicity at 70.5 h amounted to 22.3%.

Regarding `CC(C)Oc1ccccc1C1CC(=O)Nc2c1cnn2C` (centres undefined), the cytotoxicity at 70.5 h is -11.9%.

As to `CCNC(=O)c1ccc2c(c1)nc1n2CCN(Cc2ccco2)C1`, the cytotoxicity at 70.5 h was -16%.

For the compound `Cc1ccccc1N1CC2(CCN(S(=O)(=O)C3CC3)C2)CC1=O` (centres undefined), the cytotoxicity at 70.5 h is -14.8%.

Turning to `CN1[C@@H](C(=O)NCC2CC2)C[C@@H]2CN(Cc3ccco3)C[C@@H]21`, the cytotoxicity at 70.5 h was -12.2%.

Turning to `Cc1ccccc1N1CC2(CCN(S(=O)(=O)c3cccs3)C2)CC1=O` (centres undefined), the cytotoxicity at 70.5 h worked out at 14%.

As for `CCN1C(=O)CCCC12CCCN(C(=O)c1cnccn1)C2` (centres undefined), the cytotoxicity at 70.5 h was -5.91%.

For the compound `Cc1cccc(CN2C[C@@H]3CN(C(=O)[C@H]4CCCO4)C[C@@H]3C2=O)c1`, the cytotoxicity at 70.5 h is -5.16%.

Take `Cc1noc(C)c1CN1CCCC2(CCN(C(=O)CC3CC3)C2)C1` (centres undefined): the cytotoxicity at 70.5 h stood at 41.6%.

As to `COCCN1C(=O)CCC12CCN(C(=O)CC1CC1)CC2`, the cytotoxicity at 70.5 h was determined as 35.3%.

In the case of `Cc1cnc(N2CCC3(CCN(CC4CC4)C3=O)CC2)nc1`, the cytotoxicity at 70.5 h is -9.16%.

For the compound `C[C@H]1CN(Cc2cnn(C)c2)C[C@@]12CCN(Cc1cccnc1)C2=O`, the cytotoxicity at 70.5 h is -7.75%.

As for `COCCC(=O)N1CCCC2(CCC(=O)N2CCOC)CC1` (centres undefined), the cytotoxicity at 70.5 h was -7.23%.

With `COc1cccc(CN2CCCC3(CCN(C(=O)c4ccco4)C3)C2)c1` (centres undefined), the cytotoxicity at 70.5 h is -8.94%.

Consider `COc1cccc(CN2CCCC3(CCN(C(=O)[C@H]4CCCO4)C3)C2)c1` (some centres undefined), for which the cytotoxicity at 70.5 h is -2.99%.

Take `COCCCN1CC2(CCCCN2C(=O)c2ccsc2)CC1=O` (centres undefined): the cytotoxicity at 70.5 h turned out to be 8.24%.

Consider `CS(=O)(=O)N1CCCC12CCCN(S(=O)(=O)c1ccc(F)cc1)C2` (centres undefined), for which the cytotoxicity at 70.5 h was -8.04%.

Turning to `c1cncc(COCC2CN(Cc3ccco3)Cc3ccnn3C2)c1` (centres undefined), the cytotoxicity at 70.5 h amounted to 0.213%.

On to `O=C(NCc1cnc2n1CCN(c1ncc(F)cn1)CC2)C1CCC1`, for which the cytotoxicity at 70.5 h was -9.1%.

For `Cc1occc1C(=O)N1CCc2ncnc(-c3cnn(C)c3)c2CC1`, the cytotoxicity at 70.5 h was -8.07%.

With `Cc1cc(C(=O)NCc2ccc(-c3n[nH]cc3C(=O)N(C)C)cc2)on1`, the cytotoxicity at 70.5 h was -2.38%.

`CN(C)c1ncc(C(=O)N2C[C@H]3C[C@H](Oc4ccccc4)C[C@H]3C2)cn1`: the cytotoxicity at 70.5 h was -0.787%.

Turning to `c1ccc(CCN2CCCC(c3ccnc4nccn34)C2)cc1` (centres undefined), the cytotoxicity at 70.5 h is -1.37%.

For `Cc1cc(C(F)(F)F)nc(C2CCCN2S(C)(=O)=O)n1` (centres undefined), the cytotoxicity at 70.5 h was 1.14%.

As to `CCOCCN1CCC(c2cnccn2)CC1`, the cytotoxicity at 70.5 h amounted to 21.8%.

For the compound `CN1CCN(CC2(O)CCN(C(=O)CCc3ccccc3F)C2)CC1` (centres undefined), the cytotoxicity at 70.5 h turned out to be 1.21%.

Consider `Cn1cccc1C(=O)N1CCc2c(CNS(C)(=O)=O)cncc2C1`, for which the cytotoxicity at 70.5 h was -18.4%.

Regarding `CCOc1ccccc1C1CCCN1` (centres undefined), the cytotoxicity at 70.5 h turned out to be 1.15%.

On to `CCCN1C(=O)CC2(CCCNC2)C1=O` (centres undefined), for which the cytotoxicity at 70.5 h is -14.9%.

As for `NCC1[C@H]2CN(CCc3ccccc3)C[C@@H]12` (some centres undefined), the cytotoxicity at 70.5 h was 43.3%.

Regarding `O=C(NCC1CC1)C1CCC2(CCN(C(=O)c3ccccn3)CC2)O1` (centres undefined), the cytotoxicity at 70.5 h was 20.3%.

`O=C1CCC2(CCCN(CCc3ccccc3)C2)N1Cc1cccnc1` (centres undefined): the cytotoxicity at 70.5 h was -25%.

On to `CC(C)NC(=O)CC1COC2(CCN(Cc3ccccc3)CC2)C1` (centres undefined), for which the cytotoxicity at 70.5 h was -14.2%.

`COc1ccc(CN2CCC3(CC2)CCN(CC2CC2)C3=O)cc1`: the cytotoxicity at 70.5 h is -14.4%.

Take `O=C1C[C@H]2[C@@H](CCN2C(=O)Cc2cccs2)N1Cc1cccnc1`: the cytotoxicity at 70.5 h is -17%.

As to `Cc1cccc(CN2CCc3nnc(CO)n3CC2)n1`, the cytotoxicity at 70.5 h was -3.1%.

Consider `CCN1CCC2(C=C(C(=O)NC3CC3)c3ccccc32)CC1`, for which the cytotoxicity at 70.5 h was -3.64%.

As for `CNC(=O)CN1CCCC12CCN(C(=O)c1ccsc1)CC2`, the cytotoxicity at 70.5 h is -6.13%.

Regarding `O=C1N(CC2CC2)CCC12CCN(c1ncccn1)CC2`, the cytotoxicity at 70.5 h was -3.31%.

Regarding `O=C1CCC2(CCN(Cc3ccc(F)cc3)CC2)N1Cc1ccccc1`, the cytotoxicity at 70.5 h is -5.78%.

Turning to `NC(=O)N1CCC2(CC1)CN(Cc1cccnc1)C(=O)CO2`, the cytotoxicity at 70.5 h is -7.6%.

Consider `CCn1nnc2c1C(COC)CN(Cc1ccsc1)C2` (centres undefined), for which the cytotoxicity at 70.5 h is -0.304%.

For `CN(C)C[C@H]1OC[C@@H]2CCN(C(=O)c3ccco3)C[C@@H]21`, the cytotoxicity at 70.5 h is -1.52%.

With `COCCO[C@@H]1CCN(Cc2csc(C)n2)[C@H]1Cc1ccccc1`, the cytotoxicity at 70.5 h is -8.53%.

Regarding `Cc1ccc2c(n1)N(CCn1cccn1)CCN(C(=O)CC1CC1)C2`, the cytotoxicity at 70.5 h was -15.3%.

On to `COC[C@@H]1CC[C@H]2[C@H](CCN2C(=O)c2ccncc2F)O1`, for which the cytotoxicity at 70.5 h is -7.3%.

For the compound `Cc1ccc2c(n1)N(CCn1cccn1)CCN(C(=O)NC1CC1)C2`, the cytotoxicity at 70.5 h was -10.7%.

As to `Cc1nc(COC[C@]23COC[C@H]2CN(Cc2ccoc2)C3)cs1`, the cytotoxicity at 70.5 h was -9.47%.

With `Cc1ccoc1C(=O)N1CCOCC2(CCN(c3ncccn3)C2)C1` (centres undefined), the cytotoxicity at 70.5 h is -11.7%.

Regarding `CN(C)C[C@H]1OC[C@@H]2CCN(C(=O)c3cccn3C)C[C@@H]21`, the cytotoxicity at 70.5 h was -7.55%.

For the compound `CNC(=O)[C@@H]1C[C@H]2CN(Cc3ccco3)C[C@H]2N1C`, the cytotoxicity at 70.5 h was -15.3%.

Regarding `CC(C)NC(=O)N1CCN(Cc2ccccn2)CC2(CC(=O)N(C)C2)C1` (centres undefined), the cytotoxicity at 70.5 h worked out at 22.3%.

With `CN(C)CCN1CCCC12CCN(C(=O)c1cccnc1)CC2`, the cytotoxicity at 70.5 h was -3.11%.

For `CN1[C@H](CN2CCCC2)C[C@@H]2CN(C(=O)c3cccn3C)CC[C@@H]21`, the cytotoxicity at 70.5 h came to 1.34%.

As for `COCCN1CCc2cc(C(=O)N(C)C)c(NCC3CC3)nc2CC1`, the cytotoxicity at 70.5 h was -4.26%.

With `O=C1CC2(CCN(CC3CC3)C2)CN1c1cccnc1` (centres undefined), the cytotoxicity at 70.5 h was -9.06%.

Take `Cc1cccc(CN2C(=O)C[C@H]3[C@@H]2CCN3Cc2ccccn2)n1`: the cytotoxicity at 70.5 h was found to be 23.7%.

Turning to `Cc1ccc(N(CC(=O)c2ccc(Br)cc2)C2=NCCCCC2)cc1`, the cytotoxicity at 70.5 h is 16.7%.
